Columns and labels:
[1] = test system: rats with hemi-cervical spinal cord contusion (SCI); assay: SCI model: extravasated blood in cord (tissue blood); assay type: in vivo, rat; details: for PHN: following SCI (summary)
Method: (§1) SCI injury model. This study was performed in accordance with the guidelines of the Institutional Animal Care and Use Committee. Adult female Long-Evans rats (275-350 gm) were anesthetized (Ketamine, 60 mg/kg plus Xylazine, 7.5 mg/kg, i.p.). The dura at C4-5 was exposed via a left hemilaminectomy. A hemi-cervical spinal cord contusion was created using a blunt force impactor (1.3-mm impactor head driven by a 10 gm weight dropped vertically 25 mm) (Soblosky et al., 2001; Gensel et al., 2006). After SCI, animals were given 10 ml of glucose-free normal saline s.q. Rectal temperature was maintained at ˜37° C. using a servo-controlled warming blanket.
(§2) For in vivo gene suppression of SUR1, we used oligodeoxynucleotides that were phosphorothioated at 4 distal bonds to protect against endogenous nucleases (35).
Tissue blood. Rats were sacrificed at various times after SCI (n=5-11 rats/group), were perfused with heparinized saline to remove intravascular blood, and 5-mm segments of cord encompassing the lesion were homogenized and processed as described (Choudhri et al., 1997).

[2] = test system: SUR1; assay: SCI model: SUR1 immunolabeling of cord after i.v. ODN; assay type: in vivo, rat
Method: as §1, with “blanket. Blood gases and serum glucose 10-15 min post-SCI were: pO2, 95±6 mm Hg; pCO2, 46±3 mm Hg; pH, 7.33±0.01; glucose 258±17 mg/dl in controls and pO2, 96±7 mm Hg; pCO2, 45±2 mm Hg; pH, 7.37±0.01; glucose 242±14 mg/dl in glibenclamide-treated animals.” for “blanket.”
For in vivo gene suppression of SUR1, we used oligodeoxynucleotides that were phosphorothioated at 4 distal bonds to protect against endogenous nucleases (35). Within a few min of SCI, mini-osmotic pumps (Alzet 2002, 0.5 μl/h; Durect Corporation) with jugular vein catheters were implanted that delivered either scrambled sequence ODN (Scr-ODN) (5′-[…]-3′; SEQ ID NO:1) or antisense ODN (AS-ODN) (5′-[…]-3′; SEQ ID NO:2) (Yokoshiki et al., 1999) in PBS at a rate of 1 mg/rat/24 h.
(§3) Immunohistochemistry. Cryosections were immunolabeled (Chen et al., 2003; Simard et al., 2006) using primary antibodies directed against SUR1 (Santa Cruz, C-16; 1:200; 1 h at RT, 48 h at 4° C.), SUR2 (Santa Cruz, H-80; 1:200; 1 h at RT, 48 h at 4° C.), GFAP (Sigma, C-9205; 1:500), and vimentin (Sigma, monoclonal CY3 conjugated; 1:100). Quantitative immunofluorescence was performed as described (Gerzanich et al., 2003).

[3] = test system: rats with hemi-cervical spinal cord contusion (SCI); assay: SCI model: neurobehavioral assessment (inclined plane, paw placement, rearing); assay type: in vivo, rat
Method: as §1, §2
Neurobehavioral Assessment. All measurements were performed by blinded evaluators. Performance on the inclined plane was evaluated as described (Rivlin and Tator, 1977). To assess paw placement and vertical exploration (rearing) (Nikulina et al., 2004) animals were videotaped while in a translucent cylinder (19×20 cm). Rearing was quantified as the number of seconds spent with both front paws elevated above shoulder-height during a 3-min period of observation.

[4] = test system: SUR1; assay: SUR1 knock-down in gliotic capsule (gelatin sponge implant), Western blot and astrocyte patch clamp; assay type: in vivo, rat; details: vs Scr-ODN
Method: To validate the antisense strategy, it was first implemented in the model that was originally used for the discovery of the NCCa-ATP channel, wherein a gelatin sponge is implanted into the parietal lobe to stimulate formation of a gliotic capsule (Chen and Simard, 2001). Here, animals were also fitted with mini-osmotic pumps that delivered oligodeoxynucleotides (ODN), either antisense (AS) or scrambled (Scr), continuously for 7 d into the injury site.
SUR1 knock-down in astrocytes was performed in triplicates by implanting rats with gelatin sponges in the parietal lobe to induce formation of a gliotic capsule containing reactive astrocytes that express the SUR1-regulated NCCa-ATP channel (Chen and Simard, 2001; Chen et al., 2003). At the same time, they were implanted with mini-osmotic pumps (Alzet, model 2002; 14-day pump) placed in the dorsal thoracolumbar region that contained ODN (711 μg/ml delivered @ 0.5 μl/h, yielding 1500 picomoles/day), with the delivery catheter placed directly into the site of the gelatin sponge implant in the brain. Animals were infused with Src-ODN or AS-ODN, as above but not phosphorothioated. After 10-14 days, the gelatin sponge plus encapsulating gliotic tissues were harvested and processed either for Western immunoblots or to obtain fresh reactive astrocytes for patch clamp electrophysiology. […]

[5] = test system: rats with hemi-cervical spinal cord contusion (SCI); assay: SCI model: lesion size; assay type: in vivo, rat; details: following SCI; compared to controls (summary)
Method: as §1, with “blanket. Blood gases and serum glucose 10-15 min post-SCI were: pO2, 95±6 mm Hg; pCO2, 46±3 mm Hg; pH, 7.33±0.01; glucose 258±17 mg/dl in controls and pO2, 96±7 mm Hg; pCO2, 45±2 mm Hg; pH, 7.37±0.01; glucose 242±14 mg/dl in glibenclamide-treated animals.” for “blanket.”
Drug delivery. […] During the course of the project, slightly different formulations of drug were used, with the best results obtained using stock solutions made by placing 50 mg (or 25 mg) of drug into 10 ml DMSO, and infusion solutions made by placing 400 μl (or 800 μl) stock into 4.6 ml (or 4.2 ml) unbuffered saline (0.9% NaCl) and adjusting the pH to ˜8.5 using 0.1 N NaOH.
Lesion size. At 7 d post-SCI, cords were paraffin sectioned and stained with H&E. Lesion volumes were calculated from lesion areas measured on serial sections every 250 μm.
as §3

[6] = target: SUR1-regulated NCCa-ATP channels (Rattus norvegicus, UniProt Q09429); details: read-out: EC50, block of NCCa-ATP channel; cited from earlier work
[7] = target: T1, SUR1-regulated NCCa-ATP channel in human aortic endothelial cells (Homo sapiens, UniProt Q09428); assay: Perforated-patch whole-cell recording of endothelial cells, channel activation by diazoxide; assay type: cell-based
T1 construct: host or cells: human aortic endothelial cells cultured under hypoxia
T1 sequence (Q09428 whole entry): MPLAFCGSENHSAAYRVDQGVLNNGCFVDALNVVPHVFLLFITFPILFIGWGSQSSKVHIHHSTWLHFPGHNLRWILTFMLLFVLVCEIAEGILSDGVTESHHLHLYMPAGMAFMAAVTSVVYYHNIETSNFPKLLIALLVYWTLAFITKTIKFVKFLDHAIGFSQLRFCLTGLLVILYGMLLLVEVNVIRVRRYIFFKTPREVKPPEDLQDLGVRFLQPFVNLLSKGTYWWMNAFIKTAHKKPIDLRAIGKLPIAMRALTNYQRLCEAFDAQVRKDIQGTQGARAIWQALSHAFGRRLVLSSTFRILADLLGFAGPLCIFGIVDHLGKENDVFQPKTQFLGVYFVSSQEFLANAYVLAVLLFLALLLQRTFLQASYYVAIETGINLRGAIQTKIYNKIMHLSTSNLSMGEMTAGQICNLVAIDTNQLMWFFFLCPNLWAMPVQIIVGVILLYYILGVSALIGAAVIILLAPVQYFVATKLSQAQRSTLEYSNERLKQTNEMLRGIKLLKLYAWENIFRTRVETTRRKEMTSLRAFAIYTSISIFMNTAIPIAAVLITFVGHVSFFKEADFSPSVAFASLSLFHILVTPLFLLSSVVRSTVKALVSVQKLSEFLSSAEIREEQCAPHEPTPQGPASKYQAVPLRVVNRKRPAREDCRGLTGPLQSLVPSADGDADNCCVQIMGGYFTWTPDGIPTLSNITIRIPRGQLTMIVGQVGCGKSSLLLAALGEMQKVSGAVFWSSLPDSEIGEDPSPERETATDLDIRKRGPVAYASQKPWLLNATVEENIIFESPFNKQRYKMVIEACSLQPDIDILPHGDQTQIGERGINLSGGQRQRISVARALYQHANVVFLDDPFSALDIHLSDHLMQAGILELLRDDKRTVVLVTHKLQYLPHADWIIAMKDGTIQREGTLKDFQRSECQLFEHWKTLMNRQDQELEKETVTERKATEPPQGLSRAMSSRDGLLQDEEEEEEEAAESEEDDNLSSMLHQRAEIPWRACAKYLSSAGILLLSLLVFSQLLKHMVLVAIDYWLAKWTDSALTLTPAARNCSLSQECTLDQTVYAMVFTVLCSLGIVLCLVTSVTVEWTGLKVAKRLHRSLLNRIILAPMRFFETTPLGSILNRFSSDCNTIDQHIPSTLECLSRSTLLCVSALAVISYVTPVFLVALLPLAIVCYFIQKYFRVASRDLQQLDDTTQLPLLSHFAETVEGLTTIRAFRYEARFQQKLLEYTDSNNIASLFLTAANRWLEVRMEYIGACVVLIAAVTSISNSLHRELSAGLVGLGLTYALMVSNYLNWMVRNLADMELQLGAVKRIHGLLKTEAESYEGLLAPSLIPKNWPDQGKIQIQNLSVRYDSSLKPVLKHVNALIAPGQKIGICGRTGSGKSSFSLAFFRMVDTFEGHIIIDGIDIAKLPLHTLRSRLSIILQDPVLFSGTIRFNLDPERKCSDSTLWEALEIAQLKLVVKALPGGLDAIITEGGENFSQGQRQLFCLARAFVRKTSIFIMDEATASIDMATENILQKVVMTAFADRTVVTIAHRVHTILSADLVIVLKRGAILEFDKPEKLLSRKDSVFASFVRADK
T1 sequence (Q8TD43 whole entry partner): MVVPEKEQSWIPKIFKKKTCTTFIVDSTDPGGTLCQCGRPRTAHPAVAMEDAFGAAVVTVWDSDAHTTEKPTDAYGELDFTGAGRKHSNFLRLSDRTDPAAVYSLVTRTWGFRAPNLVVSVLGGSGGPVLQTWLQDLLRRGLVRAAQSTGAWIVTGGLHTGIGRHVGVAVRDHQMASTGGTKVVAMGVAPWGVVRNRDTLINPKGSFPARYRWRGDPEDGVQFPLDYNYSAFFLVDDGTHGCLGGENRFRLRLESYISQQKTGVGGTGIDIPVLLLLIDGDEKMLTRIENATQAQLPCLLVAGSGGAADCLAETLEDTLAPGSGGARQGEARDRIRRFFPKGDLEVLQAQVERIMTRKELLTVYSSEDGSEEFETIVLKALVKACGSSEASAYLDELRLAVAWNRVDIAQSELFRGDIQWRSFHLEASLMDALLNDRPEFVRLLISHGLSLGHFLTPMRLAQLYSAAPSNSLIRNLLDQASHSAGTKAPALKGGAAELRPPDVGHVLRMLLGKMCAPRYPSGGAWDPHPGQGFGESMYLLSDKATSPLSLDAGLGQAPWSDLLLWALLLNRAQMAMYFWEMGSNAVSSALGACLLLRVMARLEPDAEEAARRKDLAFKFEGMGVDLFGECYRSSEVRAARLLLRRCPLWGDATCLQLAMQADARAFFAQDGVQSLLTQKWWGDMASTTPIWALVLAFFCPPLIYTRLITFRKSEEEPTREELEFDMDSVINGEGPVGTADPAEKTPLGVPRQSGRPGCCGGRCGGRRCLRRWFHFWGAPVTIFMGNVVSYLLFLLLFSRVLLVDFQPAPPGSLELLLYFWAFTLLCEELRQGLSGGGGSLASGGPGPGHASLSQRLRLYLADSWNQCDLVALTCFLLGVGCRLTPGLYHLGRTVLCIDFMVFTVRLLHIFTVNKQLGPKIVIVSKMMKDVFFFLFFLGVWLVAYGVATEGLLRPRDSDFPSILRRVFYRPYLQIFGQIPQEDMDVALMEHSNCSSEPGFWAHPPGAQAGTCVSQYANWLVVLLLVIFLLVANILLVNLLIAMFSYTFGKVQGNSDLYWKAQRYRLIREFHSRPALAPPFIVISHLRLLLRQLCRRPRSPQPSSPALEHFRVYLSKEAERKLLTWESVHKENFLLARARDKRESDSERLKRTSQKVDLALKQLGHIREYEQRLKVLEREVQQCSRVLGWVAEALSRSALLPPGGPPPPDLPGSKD
Method: Patch clamp of endothelial cells was performed using a nystatin-perforated patch technique, to maintain the metabolic integrity of the cells. The identity of the activated channel can be assessed by measurement of the “reversal potential”, the potential at which an ion channel current reverses from inward to outward. With physiologically relevant concentrations of ions intracellularly and extracellularly (high potassium inside, high sodium outside), the reversal potential can unambiguously distinguish between a K^+ channel current such as KATP, which reverses negative to −50 mV and a non-selective cation channel current such as NCCa-ATP, which reverses near 0 mV.
Cell culture. Endothelial cell cultures from human brain microvessels, human aorta (ScienCell Research Laboratories), and murine brain microvessels (bEnd.3; ATCC), were grown at low density using media and supplements recommended by suppliers.

[8] = target: native and recombinant β-cell KATP channels (Homo sapiens, UniProt Q09428); details: read-out: IC50, block of native and recombinant β-cell KATP channels; cited from earlier work
Sequence of native and recombinant β-cell KATP channels (Q09428 whole entry): as the sequence (Q09428 whole entry) above
Sequence of native and recombinant β-cell KATP channels (Q14654 whole entry partner): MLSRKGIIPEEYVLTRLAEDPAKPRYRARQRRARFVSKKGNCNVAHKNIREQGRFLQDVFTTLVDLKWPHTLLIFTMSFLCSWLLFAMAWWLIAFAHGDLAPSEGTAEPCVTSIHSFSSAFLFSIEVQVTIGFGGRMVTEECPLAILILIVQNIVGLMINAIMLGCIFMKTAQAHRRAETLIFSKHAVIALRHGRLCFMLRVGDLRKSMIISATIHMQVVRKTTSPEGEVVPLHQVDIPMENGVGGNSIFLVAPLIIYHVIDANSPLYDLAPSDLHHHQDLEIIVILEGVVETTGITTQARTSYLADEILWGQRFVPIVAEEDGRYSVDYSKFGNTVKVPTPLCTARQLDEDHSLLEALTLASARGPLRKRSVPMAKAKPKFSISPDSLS

[9] = 1 d post-SCI, ODN i.v., vs Scr-ODN
[10] = repaglinide 200 ng/h s.q., n=3-8/group

## 5′-GGCCGAGTGGTTCTCGGT-3′ (DNA, backbone and methylation of C not given here; phosphorothioate at 4 distal bonds) [AS-ODN]
[1]; [9]
  blood in cord homogenates (effect): reduced
[1]
  PHN: significantly reduced
[2]; 6 h post-SCI, ODN i.v. 1 mg/rat/24 h, vs controls
  SUR1 immunolabeling of cord: significantly less immunolabeling
[2]; post-SCI, ODN i.v.
  normal expression of SUR1 in dorsal horn cells: did not affect
[2]; post-SCI, ODN i.v., vs Scr-ODN
  necrotic void beneath impact site: no necrotic void was evident
[3]; [9]
  performance in vertical exploration: significantly better performance
  performance on the inclined plane: significantly better performance
[4]; ODN infused into injury site
  SUR1 protein in gliotic capsule (Western blot): significant reduction
[4]; astrocytes from gliotic capsule
  astrocyte depolarization on ATP depletion by Na azide: depolarized only slightly or not at all
[5]
  reduction in lesion volume: 3 fold

## Nc1ncnc2c1ncn2[C@@H]1O[C@H](COP(=O)(O)OP(=O)(O)OP(=O)(O)O)[C@@H](O)[C@H]1O [ATP]
[6]
  EC50: 790 nM

## CC1=NS(=O)(=O)c2cc(Cl)ccc2N1 [diazoxide]
[7]; endothelial cells cultured under hypoxic conditions
  current activated by diazoxide: activated an ohmic current that reversed near 0 mV
[7]; endothelial cells cultured under normoxic conditions
  current activated by diazoxide: either had no effect or, in half of the cells, activated an outwardly rectifying current

## CCOc1cc(CC(=O)N[C@@H](CC(C)C)c2ccccc2N2CCCCC2)ccc1C(=O)O [repaglinide]
[8]
  IC50: 0.9 to 7 nM
[1]; 1 d post-SCI, repaglinide 200 ng/h s.q., 5-8 rats/group
  blood in cord homogenates: 1.2 ± 0.1 µL
[1]
  PHN: significantly reduced
[3]; repaglinide 200 ng/h s.q., 5-6 rats/group
  vertical exploration: 27 ± 6 s
[3]; [10]
  inclined plane, head down: 47±3 degrees
  inclined plane, head up: 62±2 degrees
[5]
  reduction in lesion volume: 3 fold

Reference: patent US9375438B2, “Inhibitors of NCCa-ATP channels for therapy” (University of Maryland, Baltimore, priority 2007, dated 2016)
